Measurements as given in US20240400584A1, “COMPOUNDS AND METHODS FOR MODULATING SPLICING” (REMIX THERAPEUTICS INC., priority 2021, published 2024).
Where two headings read alike, the source gives them in different places.

Experiments:
Target C = test: Gene panel canonical junction qPCR assay, Target C CJ mRNA (Table 7); format: cell-based, human; details: read-out: Target C CJ mRNA decrease IC50
Method in brief: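 A673 or K562 cells were treated with compound; lysates went through cDNA synthesis and RT-qPCR, with a probe or primer spanning the canonical exon–exon junction. ΔCt vs housekeeper (GAPDH, GUSB or PPIA), normalized to DMSO (2^(−ΔΔCt)), converted to percentage response; IC50 from 4-parameter logistic fit of CJ decrease.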

[1] = system: HiBit-tagged HTT in K562 cells; test: HiBiT protein abundance assay, HTT; format: cell-based, human; details: HiBiT-modified K562 cells, 24 hours, luminescence
Procedure: Compounds described herein were used to screen for effects on quantitative protein abundance using a HiBit assay system (Promega). Quantitative protein abundance was determined by measuring the protein levels of HiBit-tagged protein targets expressed in cell culture via luminescence using the Nano-Glo HiBiT Lytic Detection System, which uses a split complementation assay format to reconstitute NanoBiT enzyme to generate a luminescent signal. A protein abundance assay was developed such that endogenous protein targets could be modified with the HiBiT peptide tag and their abundance could be assessed after compound treatment. Briefly, K562 cell lines containing a HiBiT-modification were treated with various compounds described herein (e.g., compounds of Formulas (I)). After treatment for 24 hours, the protein abundance of a specific target was determined by measuring luminescence.
Cells were maintained in IMDM with 10% FBS. Before the assay, cells were diluted with […] growth media (IMDM+[…] media) and were seeded in a 384-well plate at a density of 10000 cells/well (for each cell line listed in Table 8). Each compound was prepared as a 10-point 3-fold serial dilution in DMSO with the top dose at a final concentration of 10 μM in the well. Unmodified K562 cells were added at the previously specified density with DMSO to serve as an assay baseline and positive control (PC) and DMSO only with the respective modified cell lines was added to the negative control (NC) columns. Final DMSO concentration was kept at or below 0.25% o. Treated cell plates were placed in an incubator at 37° C. with […] for 24 hours. After 24 hours, 25 μL of Complete HiBit Lytic reagent was added to each well at room temperature (e.g. one plate requiring 10 mL Lytic Buffer, 100 μL LgBiT Protein, 200 μL Lytic Substrate), shaken for 5 minutes at 600 RPM, then left to sit for 10 minutes for signal to stabilize before reading on a Spark Cyto plate reader (Tecan) with a 500 ms measurement time.
To determine compound effects on protein abundance of each target in Table 9, the percent response for each respective cell line was calculated at each compound concentration as follows:
For the normalized response at each concentration, a four-parameter logistical regression was fit to the data and the response was interpolated at the […] to determine a concentration for protein abundance at 50% o (IC50) the untreated control.

SMILES	IC50 (Target C; Homo sapiens)	IC50 [1]	IC50 (Target C)
COc1cc(-c2ccc3c(c2)COc2nc(N(C)[C@@H]4C[C@H]5CC[C@@H](C4)N5)ccc2-3)cnn1 [Compound 159]	< 0.1 µM	< 0.1 µM	
CN(c1ccc2c(c1)CCOc1cc(-n3cccn3)ccc1-2)[C@@H]1C[C@H]2CC[C@@H](C1)N2 [Compound 113]	> 10 µM	> 10 µM	
CN(c1ccc2c(c1)OCc1cc(-c3cn[nH]c3)ccc1-2)[C@@H]1C[C@H]2CC[C@@H](C1)N2 [Compound 104]	> 10 µM	1 to 10 µM	
COc1cc(-c2ccc3c(c2)COc2nc(O[C@@H]4C[C@H]5COC[C@@H](C4)N5)ccc2-3)cnn1 [Compound 290, (exo)-7-{[8-(6-methoxypyridazin-4-yl)-6H-isochromeno[3,4-b]pyridin-3-yl]oxy}-3-oxa-9-azabicyclo[3.3.1]nonane]	0.1 to 1 µM	< 0.1 µM	
CC1(C)CC(Nc2ccc3c(n2)OCc2cc(-n4cccn4)ccc2-3)CC(C)(C)N1 [Compound 165]	0.1 to 1 µM	< 0.1 µM	
CN(c1ccc2c(n1)OCc1cc(-n3ccnn3)ccc1-2)[C@@H]1C[C@H]2CC[C@@H](C1)N2 [Compound 152]	0.1 to 1 µM	< 0.1 µM	
CN(c1ccc2c(n1)OCc1cc(-c3cn[nH]c3)ccc1-2)[C@@H]1C[C@H]2CC[C@@H](C1)N2 [Compound 108]	< 0.1 µM	< 0.1 µM	
CN(c1ccc2c(c1)COc1cc(-n3cccn3)ccc1-2)C1CC(C)(C)NC(C)(C)C1 [Compound 117]		1 to 10 µM	
CN(c1cnc2c(n1)OCc1cc(-c3cn[nH]c3)ccc1-2)C1CC(C)(C)NC(C)(C)C1 [Compound 142]		0.1 to 1 µM	1 to 10 µM
COc1cc(-c2ccc3c(c2)COc2nc(N4CCN[C@@H](C)C4)ccc2-3)cnn1 [Compound 287]	1 to 10 µM	0.1 to 1 µM	
COc1cc(-c2ccc3c(c2)COc2nc(N4CCC(N(C)C)C4)ccc2-3)cnn1 (stereo not shown) [Compound 306, 1-[8-(6-methoxypyridazin-4-yl)-6H-isochromeno[3,4-b]pyridin-3-yl]-N,N-dimethylpyrrolidin-3-amine]	1 to 10 µM	0.1 to 1 µM	
C[C@@H]1C[C@H](N(C)c2ccc3c(c2)OCc2cc(-c4cn[nH]c4)ccc2-3)CCN1 [Compound 101]	> 10 µM	1 to 10 µM	
Cc1cn(-c2ccc3c(c2)COc2nc(N(C)[C@@H]4C[C@H]5CC[C@@H](C4)N5)ccc2-3)cn1 [Compound 164]	0.1 to 1 µM	< 0.1 µM	
CN(c1ccc2c(n1)OCc1cc(-n3nccn3)ccc1-2)[C@@H]1C[C@H]2CC[C@@H](C1)N2 [Compound 151]	0.1 to 1 µM	< 0.1 µM	
CN(c1ccc2c(n1)OCc1cc(-n3cccn3)ccc1-2)[C@@H]1C[C@H]2CC[C@@H](C1)N2 [Compound 149]	0.1 to 1 µM	0.1 to 1 µM	
CN(c1ccc2c(n1)COc1cc(-n3cccn3)ccc1-2)C1CC(C)(C)NC(C)(C)C1 [Compound 125]	> 10 µM	1 to 10 µM	
CC1(C)CC(Nc2ccc3c(c2)COc2cc(-n4cccn4)ccc2-3)CC(C)(C)N1 [Compound 118]		1 to 10 µM	
c1cc2c(cc1-c1cn[nH]c1)COc1nc(N3CCC34CCNC4)ccc1-2 (stereo not shown) [Compound 207]	> 10 µM	1 to 10 µM	
CN(c1ccc2c(n1)OCc1cc(-c3ccc(=O)[nH]c3)ccc1-2)[C@@H]1C[C@H]2CC[C@@H](C1)N2 [Compound 157]	1 to 10 µM	0.1 to 1 µM	
CN(c1ccc2c(n1)COc1cc(-c3cn[nH]c3)ccc1-2)[C@@H]1C[C@H]2CC[C@@H](C1)N2 [Compound 121]	0.1 to 1 µM	< 0.1 µM	
Cc1ncc(-c2ccc3c(c2)COc2nc(O[C@@H]4C[C@H]5C[C@@H](C4)N5)ccc2-3)s1 [Compound 208]	0.1 to 1 µM	< 0.1 µM	
C[C@H]1C[C@H](N(C)c2ccc3c(c2)OCc2cc(-c4cn[nH]c4)ccc2-3)CCN1 [Compound 102]	> 10 µM	1 to 10 µM	
CC(C)Oc1cnnc(-c2ccc3c(c2)COc2nc(N4CCC(NC(C)(C)C)C4)ccc2-3)c1 (stereo not shown) [Compound 286]	> 10 µM	1 to 10 µM	
CN(c1cnc2c(n1)OCc1cc(-c3cn[nH]c3)ccc1-2)[C@@H]1C[C@H]2CC[C@@H](C1)N2 [Compound 144]	0.1 to 1 µM	< 0.1 µM	

SMILES	IC50 (Target C; Homo sapiens)	IC50 [1]	IC50 (Target C)
CN(c1ccc2c(n1)OCCc1cc(-c3cn[nH]c3)ccc1-2)C1CC(C)(C)NC(C)(C)C1 [Compound 145]	1 to 10 µM	1 to 10 µM	
CN(c1ccc2c(n1)OCc1cc(-c3cnc(=O)[nH]c3)ccc1-2)[C@@H]1C[C@H]2CC[C@@H](C1)N2 [Compound 161]	> 10 µM	> 10 µM	
CN(c1ccc2c(n1)OCc1cc(-n3ccnc3)ccc1-2)[C@@H]1C[C@H]2CC[C@@H](C1)N2 [Compound 163]	0.1 to 1 µM	< 0.1 µM	
Cc1ncc(-c2ccc3c(c2)COc2nc(N(C)[C@@H]4C[C@H]5CC[C@@H](C4)N5)ccc2-3)o1 [Compound 155]	0.1 to 1 µM	< 0.1 µM	
CN(c1ccc2c(c1)OCc1cc(-n3cccn3)ccc1-2)[C@@H]1C[C@H]2CC[C@@H](C1)N2 [Compound 105]		1 to 10 µM	
CN(c1ccc2c(n1)CCOc1cc(-n3cccn3)ccc1-2)C1CC(C)(C)NC(C)(C)C1 [Compound 129]	> 10 µM	> 10 µM	
CN(c1ccc2c(n1)OCc1cc(-c3cc(=O)n(C)cn3)ccc1-2)[C@@H]1C[C@H]2CC[C@@H](C1)N2 [Compound 162]	< 0.1 µM	< 0.1 µM	
CN(c1ccc2c(n1)OCc1cc(-n3cccn3)ccc1-2)C1CC(C)(C)NC(C)(C)C1 [Compound 148]	1 to 10 µM	1 to 10 µM	
COc1cc(-c2ccc3c(c2)COc2nc(N(C)[C@@H]4C[C@H]5CC[C@@H](C4)N5)ccc2-3)ccn1 [Compound 156]	0.1 to 1 µM	< 0.1 µM	
CN(c1ccc2c(n1)COc1cc(-n3cccn3)ccc1-2)[C@@H]1C[C@H]2CC[C@@H](C1)N2 [Compound 124]	1 to 10 µM	1 to 10 µM	
CN(c1ccc2c(n1)OCCc1cc(-c3cn[nH]c3)ccc1-2)[C@@H]1C[C@H]2CC[C@@H](C1)N2 [Compound 146]	> 10 µM	1 to 10 µM	
CN(c1ccc2c(n1)OCc1cc(-c3ccc(=O)n(C)c3)ccc1-2)[C@@H]1C[C@H]2CC[C@@H](C1)N2 [Compound 158]	0.1 to 1 µM	< 0.1 µM	
CN(c1ccc2c(n1)OCc1cc(-c3ccn(C)c(=O)c3)ccc1-2)[C@@H]1C[C@H]2CC[C@@H](C1)N2 [Compound 153]	< 0.1 µM	< 0.1 µM	
c1cnn(-c2ccc3c(c2)COc2nc(NC4CNC4)ccc2-3)c1 [Compound 166]	> 10 µM	1 to 10 µM	
CN(c1ccc2c(n1)OCc1cc(-c3cn[nH]c3)ccc1-2)C1CC(C)(C)NC(C)(C)C1 [Compound 147]	0.1 to 1 µM	0.1 to 1 µM	
Cc1cnc(-c2ccc3c(c2)COc2nc(N(C)[C@@H]4C[C@H]5CC[C@@H](C4)N5)ccc2-3)o1 [Compound 206]	1 to 10 µM	< 0.1 µM	
CN(c1ccc2c(n1)OCc1cc(-c3cnn(C)c(=O)c3)ccc1-2)[C@@H]1C[C@H]2CC[C@@H](C1)N2 [Compound 160]	< 0.1 µM	< 0.1 µM	
COc1cc(-c2ccc3c(c2)COc2nc(N4CCC(N5CCCC5)C4)ccc2-3)cnn1 (stereo not shown) [Compound 305]	1 to 10 µM	0.1 to 1 µM	
c1cc2c(cc1-c1cn[nH]c1)COc1nc(O[C@@H]3C[C@H]4CC[C@@H](C3)N4)ccc1-2 [Compound 218]	0.1 to 1 µM	0.1 to 1 µM	
COc1cc(-c2ccc3c(c2)COc2nc(N4CCC(N(C)C5CCC5)C4)ccc2-3)cnn1 (stereo not shown) [Compound 307, N-cyclobutyl-1-[8-(6-methoxypyridazin-4-yl)-6H-isochromeno[3,4-b]pyridin-3-yl]-N-methylpyrrolidin-3-amine]	0.1 to 1 µM	0.1 to 1 µM	
CN(c1ccc2c(n1)OCc1cc(-c3cn[nH]c3)ccc1-2)C1CCNCC1 [Compound 116]	0.1 to 1 µM	0.1 to 1 µM	
c1cc2c(cc1-c1cn[nH]c1)COc1nc(N[C@@H]3C[C@H]4CC[C@@H](C3)N4)cnc1-2 [Compound 143]	0.1 to 1 µM	0.1 to 1 µM	
COc1cc(-c2ccc3c(c2)COc2nc(N4CCC(NC5(C)CCC5)C4)ccc2-3)cnn1 (stereo not shown) [Compound 285, 1-[8-(6-methoxypyridazin-4-yl)-6H-isochromeno[3,4-b]pyridin-3-yl]-N-(1-methylcyclobutyl)pyrrolidin-3-amine]	0.1 to 1 µM	0.1 to 1 µM	
